The record followed here is ChEMBL document CHEMBL3046749, “Synthesis and antimicrobial activity of novel bis-azaphenothiazines” (2013).

What all share (assay type): functional
Test [1] relates to Bacillus subtilis. Description: Antibacterial activity against Bacillus subtilis MTCC 441 at 100 ug/ml after 16 to 18 hr by cup-plate method. As to conditions: read-out: IZ.
For test [2], the system named is Staphylococcus epidermidis. Description: Antibacterial activity against Staphylococcus epidermidis MTCC 435 after 16 hr by cup-plate method. As to conditions: MTCC 435, 16 h.
The test system of test [3] is Pseudomonas aeruginosa. Description: Antibacterial activity against Pseudomonas aeruginosa MTCC 424 after 16 hr by cup-plate method. As to conditions: MTCC 424, 16 h.
Test [4] relates to Aspergillus fumigatus. Description: Antifungal activity against Aspergillus fumigatus MTCC 343 after 28 to 30 hr by cup-plate method.
In test [5] the test system is Aspergillus flavus. Kind of test: Antifungal activity against Aspergillus flavus MTCC 277 after 28 to 30 hr by cup-plate method.
Test [6] relates to Candida albicans. Kind of test: Antifungal activity against Candida albicans MTCC 227 after 28 to 30 hr by cup-plate method.
Test [7] relates to Aspergillus fumigatus. Kind of test: Antifungal activity against Aspergillus fumigatus MTCC 343 at 100 ug/ml after 28 to 30 hr by cup-plate method. As to conditions: for zone of inhibition at 100 µg/mL: read-out: IZ.
In test [8] the test system is Bacillus subtilis. Description: Antibacterial activity against Bacillus subtilis MTCC 441 after 16 hr by cup-plate method. As to conditions: MTCC 441, 16 h.
For test [9], the system named is Klebsiella pneumoniae. Description: Antibacterial activity against Klebsiella pneumoniae MTCC 432 after 16 hr by cup-plate method. The conditions noted are these: MTCC 432, 16 h.
For test [10], the system named is Aspergillus flavus. Description: Antifungal activity against Aspergillus flavus MTCC 277 at 100 ug/ml after 28 to 30 hr by cup-plate method. The conditions noted are these: for zone of inhibition at 100 µg/mL: read-out: IZ.
The test system of test [11] is Salmonella typhi. Description: Antibacterial activity against Salmonella enterica subsp. enterica serovar Typhi MTCC 733 at 100 ug/ml after 16 to 18 hr by cup-plate method. The conditions noted are these: read-out: IZ.
The subject of test [12] is Escherichia coli. Kind of test: Antibacterial activity against Escherichia coli MTCC 443 at 100 ug/ml after 16 to 18 hr by cup-plate method. As to conditions: read-out: IZ.
The test system of test [13] is Staphylococcus aureus. Description: Antibacterial activity against Staphylococcus aureus MTCC 096 at 100 ug/ml after 16 to 18 hr by cup-plate method. As to conditions: read-out: IZ.
Test [14] relates to Escherichia coli. Kind of test: Antibacterial activity against Escherichia coli MTCC 443 after 16 hr by cup-plate method. As to conditions: MTCC 443, 16 h.
Test [15] deals with Klebsiella pneumoniae. Kind of test: Antibacterial activity against Klebsiella pneumoniae MTCC 432 at 100 ug/ml after 16 to 18 hr by cup-plate method. The conditions noted are these: read-out: IZ.
Test [16] concerns Staphylococcus epidermidis. Description: Antibacterial activity against Staphylococcus epidermidis MTCC 435 at 100 ug/ml after 16 to 18 hr by cup-plate method. The conditions noted are these: read-out: IZ.
Test [17] concerns Aspergillus niger. Kind of test: Antifungal activity against Aspergillus niger MTCC 282 after 28 to 30 hr by cup-plate method.
For test [18], the system named is Candida albicans. Description: Antifungal activity against Candida albicans MTCC 227 at 100 ug/ml after 28 to 30 hr by cup-plate method. The conditions noted are these: for zone of inhibition at 100 µg/mL: read-out: IZ.
The test system of test [19] is Staphylococcus aureus. Description: Antibacterial activity against Staphylococcus aureus MTCC 096 after 16 hr by cup-plate method. The conditions noted are these: MTCC 096, 16 h.
The test system of test [20] is Pseudomonas aeruginosa. Kind of test: Antibacterial activity against Pseudomonas aeruginosa MTCC 424 at 100 ug/ml after 16 to 18 hr by cup-plate method. As to conditions: read-out: IZ.
The test system of test [21] is Aspergillus niger. Kind of test: Antifungal activity against Aspergillus niger MTCC 282 at 100 ug/ml after 28 to 30 hr by cup-plate method. As to conditions: for zone of inhibition at 100 µg/mL: read-out: IZ.
Test [22] relates to Salmonella typhi. Kind of test: Antibacterial activity against Salmonella enterica subsp. enterica serovar Typhi MTCC 733 after 16 hr by cup-plate method. As to conditions: MTCC 733, 16 h.

SMILES strings stand for the structures. Values after ≈ are worked out from the molar mass of the structure shown. Active and inactive are the calls of the source. No cut-off for these calls is given here.

For orientation: MIC means the lowest concentration that inhibits growth of the organism. A high value points to weaker potency.

Consider `c1ccc2c(c1)Sc1cccnc1N2CCCCN1c2ccccc2Sc2cccnc21`, for which the zone of inhibition at 100 µg/mL in test [1] is 10 mm; in [11], 12 mm; in [12] it was 11 mm; in test [13], 11 mm; in test [15] it was 12 mm; in test [16], 12 mm. For the same compound, the zone of inhibition at 100 µg/mL in test [20] stood at 13 mm. Besides, the minimum inhibitory concentration (MIC) in [2] is 12.5 µg/mL (≈ 27.5 µM); in [3], 6.25 µg/mL (≈ 13.7 µM); in test [4], greater than 50 µg/mL; in test [5], greater than 50 µg/mL; in test [6], greater than 50 µg/mL; in test [8], greater than 50 µg/mL. Further, the MIC in test [9] is 25 µg/mL (≈ 55 µM); in [14] it was greater than 50 µg/mL; in test [17], greater than 50 µg/mL; in test [19], 50 µg/mL (≈ 110 µM). Besides, the “inhibition zone (IZ)” value in [7], in [10], in test [18] and in test [21] was “inactive” throughout.
With `Brc1ccc2c(c1)Sc1cccnc1N2CCCCN1c2ccc(Br)cc2Sc2cccnc21`, the zone of inhibition at 100 µg/mL stood at 11 mm in test [1]; 12 mm in test [7]; 10 mm in [10]; 10 mm in test [11]; 12 mm in [12]; 12 mm in test [13]. Moreover, the zone of inhibition at 100 µg/mL was 11 mm in [15]; 11 mm in test [16]; 11 mm in [18]; 12 mm in test [20]; 11 mm in test [21]. In addition, the minimum inhibitory concentration (MIC) in test [2] was 25 µg/mL (≈ 40.8 µM); in [3], 12.5 µg/mL (≈ 20.4 µM); in test [4] it was 12.5 µg/mL (≈ 20.4 µM); in test [5] it was greater than 50 µg/mL; in [6] it was 50 µg/mL (≈ 81.6 µM); in [8], 50 µg/mL (≈ 81.6 µM). For the same compound, the MIC in test [9] is 50 µg/mL (≈ 81.6 µM); in test [14] it was 12.5 µg/mL (≈ 20.4 µM); in [17], 50 µg/mL (≈ 81.6 µM); in [19], 12.5 µg/mL (≈ 20.4 µM).
For `CC(=O)Nc1ccc(Br)cc1Sc1ncccc1[N+](=O)[O-]`, the zone of inhibition at 100 µg/mL in [1] was 12 mm; in test [7], 14 mm; in [10] it was 12 mm; in test [11] it was 11 mm; in test [12], 11 mm; in test [13], 12 mm. The zone of inhibition at 100 µg/mL in test [15] worked out at 13 mm; in test [16] it was 13 mm; in [18] it was 13 mm; in test [20], 14 mm; in [21], 16 mm. Further, the MIC in test [2] was found to be 6.25 µg/mL (≈ 17 µM); in test [3] it was 6.25 µg/mL (≈ 17 µM); in [4], 6.25 µg/mL (≈ 17 µM); in [5], 12.5 µg/mL (≈ 33.9 µM); in [6], 6.25 µg/mL (≈ 17 µM); in [8] it was 25 µg/mL (≈ 67.9 µM). The MIC in test [9] was 6.25 µg/mL (≈ 17 µM); in [14], greater than 50 µg/mL; in [17] it was 6.25 µg/mL (≈ 17 µM); in test [19], 25 µg/mL (≈ 67.9 µM).
As to `Clc1ccc2c(c1)Sc1cccnc1N2CCCCN1c2ccc(Cl)cc2Sc2cccnc21`, the zone of inhibition at 100 µg/mL in test [1] turned out to be 11 mm; in test [7], 11 mm; in [10], 12 mm; in [11], 12 mm; in [12] it was 12 mm; in test [13], 12 mm. In addition, the zone of inhibition at 100 µg/mL in test [15] was found to be 11 mm; in [16], 12 mm; in test [18], 11 mm; in test [20], 11 mm; in [21] it was 10 mm. For the same compound, the minimum inhibitory concentration (MIC) in [2] was 6.25 µg/mL (≈ 11.9 µM); in test [3] it was 50 µg/mL (≈ 95.5 µM); in test [4] it was 50 µg/mL (≈ 95.5 µM); in [5], 12.5 µg/mL (≈ 23.9 µM); in test [6] it was 25 µg/mL (≈ 47.8 µM); in [8], 50 µg/mL (≈ 95.5 µM). Also, the MIC was greater than 50 µg/mL in test [9], 12.5 µg/mL (≈ 23.9 µM) in test [14], greater than 50 µg/mL in [17] and 25 µg/mL (≈ 47.8 µM) in test [19].
`O=C(O)c1cn(C2CC2)c2cc(N3CCNCC3)c(F)cc2c1=O` [CIPROFLOXACIN]: the zone of inhibition at 100 µg/mL in test [1] amounted to 18 mm; in test [11], 19 mm; in test [13], 19 mm; in test [15], 17 mm; in test [16] it was 16 mm; in test [20], 18 mm. Besides, the minimum inhibitory concentration (MIC) in [2] stood at 6.25 µg/mL (≈ 18.9 µM); in [3], 6.25 µg/mL (≈ 18.9 µM); in test [22], 6.25 mM (≈ 2070 µg/mL); in test [8], 6.25 µg/mL (≈ 18.9 µM); in test [9], 6.25 µg/mL (≈ 18.9 µM); in [14] it was 6.25 µg/mL (≈ 18.9 µM). Besides, in [19], the minimal inhibitory concentration (MIC) was 6.25 µg/mL (≈ 18.9 µM).
On to `c1ccc2c(c1)Sc1cccnc1N2CCCCCCN1c2ccccc2Sc2cccnc21`, for which the zone of inhibition at 100 µg/mL in [1] was found to be 12 mm; in [7], 10 mm; in test [10] it was 12 mm; in [11] it was 12 mm; in test [12], 12 mm; in test [13] it was 13 mm. Also, the zone of inhibition at 100 µg/mL in [15] was 12 mm; in [16] it was 13 mm; in test [18] it was 12 mm; in [20], 11 mm; in test [21], 11 mm. Also, the MIC in [2] was 6.25 µg/mL (≈ 12.9 µM); in test [3] it was 50 µg/mL (≈ 104 µM); in [4], greater than 50 µg/mL; in [5], 25 µg/mL (≈ 51.8 µM); in test [6], 12.5 µg/mL (≈ 25.9 µM); in test [8], 25 µg/mL (≈ 51.8 µM). Besides, the MIC was found to be 25 µg/mL (≈ 51.8 µM) in [9], 12.5 µg/mL (≈ 25.9 µM) in test [14], 25 µg/mL (≈ 51.8 µM) in test [17] and 6.25 µg/mL (≈ 12.9 µM) in test [19].
As to `CC(=O)Nc1ccc(F)cc1Sc1ncccc1[N+](=O)[O-]`, the zone of inhibition at 100 µg/mL came out at 12 mm in test [1]; 16 mm in test [7]; 10 mm in [10]; 12 mm in [11]; 14 mm in [12]; 13 mm in test [13]. The zone of inhibition at 100 µg/mL in [15] was 11 mm; in [16], 12 mm; in [18], 14 mm; in test [20] it was 14 mm; in [21], 18 mm. Moreover, the MIC in [2] is 25 µg/mL (≈ 81.4 µM); in [3] it was 6.25 µg/mL (≈ 20.3 µM); in test [4], 6.25 µg/mL (≈ 20.3 µM); in [5], greater than 50 µg/mL; in [6], 6.25 µg/mL (≈ 20.3 µM); in [8], 25 µg/mL (≈ 81.4 µM). Further, the MIC in test [9] was greater than 50 µg/mL; in test [14], 6.25 µg/mL (≈ 20.3 µM); in test [17], 6.25 µg/mL (≈ 20.3 µM); in test [19] it was 12.5 µg/mL (≈ 40.7 µM).
For `Clc1ccc2c(c1)Sc1cccnc1N2CCCCCCN1c2ccc(Cl)cc2Sc2cccnc21`, the zone of inhibition at 100 µg/mL is 12 mm in [1]; 12 mm in test [7]; 10 mm in test [10]; 12 mm in test [11]; 11 mm in test [12]; 12 mm in test [13]. Further, the zone of inhibition at 100 µg/mL in [15] was found to be 11 mm; in [16], 10 mm; in test [18], 12 mm; in test [20], 12 mm. In addition, the MIC is greater than 50 µg/mL in test [2]; 25 µg/mL (≈ 45.3 µM) in [3]; 12.5 µg/mL (≈ 22.7 µM) in test [4]; greater than 50 µg/mL in test [5]; 12.5 µg/mL (≈ 22.7 µM) in [6]; 25 µg/mL (≈ 45.3 µM) in [8]. For the same compound, the minimal inhibitory concentration (MIC) is 50 µg/mL (≈ 90.7 µM) in test [9], 50 µg/mL (≈ 90.7 µM) in test [14], greater than 50 µg/mL in test [17] and 25 µg/mL (≈ 45.3 µM) in [19]. The “inhibition zone (IZ)” value in test [21] is “inactive”.
